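These data come from cells grown in 96-well plates and exposed to compound for 48 hours at five concentrations. GI50 = concentration required for 50% inhibition of growth.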 Active and inactive are the calls of the source. Rule as the data show it: active = GI50 up to about 1.1 µM and inactive = higher.
Tests used:
Experiment in all cases: NCI anticancer screen, dose series, 48 h
[1] = test system: SW-620
[2] = test system: A549
[3] = test system: MOLT-4
[4] = test system: KM12
[5] = test system: UACC-62
[6] = test system: SK-MEL-2
[7] = test system: HT-29
[8] = test system: SK-MEL-5
[9] = test system: SF-268
[10] = test system: T47D
[11] = test system: OVCAR-4
[12] = test system: HCT-15
[13] = test system: NCI-H522
[14] = test system: SNB-75
[15] = test system: 786-0
[16] = test system: HCC 2998
[17] = test system: Hs-578T
[18] = test system: PC-3
[19] = test system: IGROV-1
[20] = test system: SF-295
[21] = test system: BT-549
[22] = test system: NCI-H23
[23] = test system: NCI-H226
[24] = test system: NCI/ADR-RES
[25] = test system: COLO 205
[26] = test system: SK-MEL-28
[27] = test system: UACC-257
[28] = test system: OVCAR-3
[29] = test system: EKVX
[30] = test system: OVCAR-5
[31] = test system: SR
[32] = test system: UO-31
[33] = test system: ACHN
[34] = test system: MDA-N
[35] = test system: U-251
[36] = test system: TK-10
[37] = test system: NCI-H460
[38] = test system: K562
[39] = test system: MCF7
[40] = test system: DU-145
[41] = test system: SN12C
[42] = test system: OVCAR-8
[43] = test system: CAKI-1
[44] = test system: M14
[45] = test system: HL-60
[46] = test system: HOP-62
[47] = test system: SK-OV-3
[48] = test system: MDA-MB-231
[49] = test system: HCT-116
[50] = test system: A498
[51] = test system: SNB-19
[52] = test system: CCRF-CEM
[53] = test system: SF-539
[54] = test system: RPMI-8226
[55] = test system: MDA-MB-435
[56] = test system: Malme-3M
[57] = test system: LOX IMVI
[58] = test system: HOP-92
[59] = test system: RXF 393

`C/N=C1\OC2=C3C(c4ccccc4)(O/C(=N/C)N(C)C3(c3ccccc3)OC2=O)N1C` (stereo unspecified) was tested, and the GI50 [1] was > 100 µM (inactive), the GI50 [2] was > 100 µM (inactive) and the GI50 [3] was > 100 µM (inactive). The GI50 [4] was > 100 µM (inactive), the GI50 [5] was > 100 µM (inactive) and the GI50 [6] was 23.7 µM (inactive). For the same compound, the GI50 [7] was > 100 µM (inactive), the GI50 [8] was > 100 µM (inactive) and the GI50 [9] was > 100 µM (inactive). For the same compound, the GI50 [10] was > 100 µM (inactive), the GI50 [11] was > 100 µM (inactive) and the GI50 [12] was greater than 100 µM. The GI50 [13] was > 100 µM (inactive), the GI50 [14] was 71.4 µM (inactive) and the GI50 [15] was > 100 µM (inactive). The GI50 [16] was > 100 µM (inactive), the GI50 [17] was > 100 µM (inactive) and the GI50 [18] was > 100 µM (inactive). The GI50 [19] was > 100 µM (inactive), the GI50 [20] was > 100 µM (inactive) and the GI50 [21] was > 100 µM (inactive). For the same compound, the GI50 [22] was > 100 µM (inactive), the GI50 [23] was > 100 µM (inactive) and the GI50 [24] was > 100 µM (inactive). For the same compound, the GI50 [25] was > 100 µM (inactive), the GI50 [26] was > 100 µM (inactive) and the GI50 [27] was > 100 µM (inactive). For the same compound, the GI50 [28] was > 100 µM (inactive), the GI50 [29] was > 100 µM (inactive) and the GI50 [30] was > 100 µM (inactive). The GI50 [31] was > 100 µM (inactive), the GI50 [32] was > 10 µM (inactive) and the GI50 [33] was > 100 µM (inactive). For the same compound, the GI50 [34] was > 100 µM (inactive), the GI50 [35] was > 100 µM (inactive) and the GI50 [36] was > 100 µM (inactive). The GI50 [37] was > 100 µM (inactive), the GI50 [38] was > 100 µM (inactive) and the GI50 [39] was > 100 µM (inactive). The GI50 [40] was > 100 µM (inactive), the GI50 [41] was > 100 µM (inactive) and the GI50 [42] was > 100 µM (inactive). The GI50 [43] was > 100 µM (inactive), the GI50 [44] was > 100 µM (inactive) and the GI50 [45] was > 100 µM (inactive). The GI50 [46] was > 100 µM (inactive), the GI50 [47] was > 100 µM (inactive) and the GI50 [48] was > 100 µM (inactive). For the same compound, the GI50 [49] was > 100 µM (inactive), the GI50 [50] was > 100 µM (inactive) and the GI50 [51] was > 100 µM (inactive). The GI50 [52] was > 100 µM (inactive) and the GI50 [53] was > 100 µM (inactive).
`O=C(/C=C(\Nc1ccccc1O)c1ccc(Br)cc1)C(Cl)(Cl)Cl` was tested, and the GI50 [1] was 3.06 µM (inactive), the GI50 [2] was 2.75 µM (inactive) and the GI50 [54] was 1.79 µM (inactive). For the same compound, the GI50 [55] was 8.89 µM (inactive), the GI50 [3] was 13.9 µM (inactive) and the GI50 [4] was 2.75 µM (inactive). The GI50 [5] was 13.3 µM (inactive), the GI50 [6] was 8.04 µM (inactive) and the GI50 [7] was 6.43 µM (inactive). For the same compound, the GI50 [8] was 14.2 µM (inactive), the GI50 [9] was 11.7 µM (inactive) and the GI50 [10] was 3.95 µM (inactive). For the same compound, the GI50 [56] was 15.2 µM (inactive), the GI50 [11] was 5.16 µM (inactive) and the GI50 [12] was 12.2 µM. For the same compound, the GI50 [13] was 14.9 µM (inactive), the GI50 [14] was 13.7 µM (inactive) and the GI50 [15] was 14.4 µM (inactive). For the same compound, the GI50 [16] was 2.1 µM (inactive), the GI50 [17] was 3.1 µM (inactive) and the GI50 [18] was 2.47 µM (inactive). The GI50 [19] was 10.3 µM (inactive), the GI50 [20] was 6.12 µM (inactive) and the GI50 [21] was 15 µM (inactive). For the same compound, the GI50 [22] was 12.6 µM (inactive), the GI50 [23] was 12.1 µM (inactive) and the GI50 [57] was 17.9 µM (inactive). The GI50 [24] was 11.4 µM (inactive), the GI50 [25] was 6.95 µM (inactive) and the GI50 [26] was 11 µM (inactive). The GI50 [27] was 7.26 µM (inactive), the GI50 [28] was 4.34 µM (inactive) and the GI50 [29] was 3.21 µM (inactive). The GI50 [30] was 12.1 µM (inactive), the GI50 [31] was 13.7 µM (inactive) and the GI50 [32] was 2.68 µM (inactive). For the same compound, the GI50 [33] was 2.55 µM (inactive), the GI50 [34] was 4.69 µM (inactive) and the GI50 [35] was 3.74 µM (inactive). The GI50 [36] was 6.95 µM (inactive), the GI50 [37] was 3.21 µM (inactive) and the GI50 [38] was 14.2 µM (inactive). The GI50 [39] was 5.21 µM (inactive), the GI50 [40] was 3.03 µM (inactive) and the GI50 [41] was 7.67 µM (inactive). For the same compound, the GI50 [42] was 12.6 µM (inactive), the GI50 [43] was 6.3 µM (inactive) and the GI50 [44] was 15.5 µM (inactive). The GI50 [45] was 2.36 µM (inactive), the GI50 [58] was 2.6 µM (inactive) and the GI50 [46] was 13.6 µM (inactive). The GI50 [47] was 1.07 µM (active), the GI50 [48] was 6.95 µM (inactive) and the GI50 [59] was 5.51 µM (inactive). The GI50 [49] was 10.5 µM (inactive), the GI50 [51] was 6.87 µM (inactive) and the GI50 [52] was 15.4 µM (inactive). The GI50 [53] was 12.7 µM (inactive).
